Columns and labels:
[1] = molecular target: Beta-3 adrenergic receptor (Homo sapiens, UniProt P13945); experiment: DRUGMATRIX: Adrenergic beta3 radioligand binding (ligand: [125I] Cyanopindolol); type: cell membranes, HEK293, Membrane; conditions: hek293; Not Active = under 50% inhibition at 10 µM
[2] = molecular target: C-C chemokine receptor type 5 (Homo sapiens, UniProt P51681); type: cell membranes, Membrane; conditions: hek293; also: in other assays of this panel Not Active means under 50% inhibition at 10 µM
[3] = DRUGMATRIX: ATPase, Na+/K+ enzyme inhibition (substrate: ATP); type: tissue-based, Sus scrofa, Heart; conditions: Not Active = under 50% inhibition at 10 µM
D(4) dopamine receptor = molecular target: T1, D(4) dopamine receptor (Homo sapiens, UniProt P21917); experiment: DRUGMATRIX: Dopamine D4.2 radioligand binding (ligand: [3H] Spiperone); type: cell membranes, CHO-K1, Membrane; conditions: cho-k1; Not Active = under 50% inhibition at 10 µM
T1 sequence (P21917 whole entry): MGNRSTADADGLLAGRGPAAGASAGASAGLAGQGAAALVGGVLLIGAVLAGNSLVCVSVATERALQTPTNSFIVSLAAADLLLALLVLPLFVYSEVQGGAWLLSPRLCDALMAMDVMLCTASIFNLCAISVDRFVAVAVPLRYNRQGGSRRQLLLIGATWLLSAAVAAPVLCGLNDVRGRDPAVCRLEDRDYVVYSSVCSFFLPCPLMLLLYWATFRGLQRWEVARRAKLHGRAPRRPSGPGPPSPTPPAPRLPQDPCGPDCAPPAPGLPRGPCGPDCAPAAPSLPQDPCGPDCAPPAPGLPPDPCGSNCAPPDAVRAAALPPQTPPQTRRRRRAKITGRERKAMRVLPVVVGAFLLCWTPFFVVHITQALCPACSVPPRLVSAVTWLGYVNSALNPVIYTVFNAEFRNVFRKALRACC

[4] = DRUGMATRIX: GABAA, Chloride Channel, TBOB radioligand binding (ligand: [3H] TBOB); type: cell membranes, Rattus norvegicus, Wistar, Cerebral cortex, Membrane; conditions: Not Active = under 50% inhibition at 10 µM
D(1A) dopamine receptor = D(1A) dopamine receptor (Homo sapiens, UniProt P21728); experiment: DRUGMATRIX: Dopamine D1 radioligand binding (ligand: [3H] SCH-23390); type: cell membranes, CHO, Membrane; conditions: cho; Not Active = under 50% inhibition at 10 µM
[5] = DRUGMATRIX: Purinergic P2X radioligand binding (ligand: [3H] alpha, beta-Methylene-ATP); type: cell membranes, Oryctolagus cuniculus, New Zealand albino, Urinary bladder, Membrane; conditions: Not Active = under 50% inhibition at 10 µM

Sequence of C-C chemokine receptor type 5 (P51681 whole entry): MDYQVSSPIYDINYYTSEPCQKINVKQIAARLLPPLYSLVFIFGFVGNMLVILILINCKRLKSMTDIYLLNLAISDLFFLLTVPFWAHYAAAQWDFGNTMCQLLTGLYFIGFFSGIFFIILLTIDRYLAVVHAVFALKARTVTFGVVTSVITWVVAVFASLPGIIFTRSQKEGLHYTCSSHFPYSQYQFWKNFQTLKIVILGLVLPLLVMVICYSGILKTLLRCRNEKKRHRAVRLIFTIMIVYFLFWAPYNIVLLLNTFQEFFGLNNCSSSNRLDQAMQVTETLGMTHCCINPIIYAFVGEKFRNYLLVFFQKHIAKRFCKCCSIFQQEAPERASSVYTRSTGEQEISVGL
Sequence of D(1A) dopamine receptor (P21728 whole entry): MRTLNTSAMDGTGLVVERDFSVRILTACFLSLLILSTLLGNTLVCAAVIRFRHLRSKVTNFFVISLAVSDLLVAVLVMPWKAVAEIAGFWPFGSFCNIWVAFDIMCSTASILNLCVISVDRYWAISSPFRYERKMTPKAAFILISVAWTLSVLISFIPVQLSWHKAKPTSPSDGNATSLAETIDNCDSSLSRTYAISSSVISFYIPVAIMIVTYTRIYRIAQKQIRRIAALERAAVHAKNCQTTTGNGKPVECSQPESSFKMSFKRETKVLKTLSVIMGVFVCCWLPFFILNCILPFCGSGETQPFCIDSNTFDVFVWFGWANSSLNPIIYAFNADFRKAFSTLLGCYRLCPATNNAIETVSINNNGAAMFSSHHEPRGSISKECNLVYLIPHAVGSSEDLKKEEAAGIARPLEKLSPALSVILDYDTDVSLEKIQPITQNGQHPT
Sequence of Beta-3 adrenergic receptor (P13945 whole entry): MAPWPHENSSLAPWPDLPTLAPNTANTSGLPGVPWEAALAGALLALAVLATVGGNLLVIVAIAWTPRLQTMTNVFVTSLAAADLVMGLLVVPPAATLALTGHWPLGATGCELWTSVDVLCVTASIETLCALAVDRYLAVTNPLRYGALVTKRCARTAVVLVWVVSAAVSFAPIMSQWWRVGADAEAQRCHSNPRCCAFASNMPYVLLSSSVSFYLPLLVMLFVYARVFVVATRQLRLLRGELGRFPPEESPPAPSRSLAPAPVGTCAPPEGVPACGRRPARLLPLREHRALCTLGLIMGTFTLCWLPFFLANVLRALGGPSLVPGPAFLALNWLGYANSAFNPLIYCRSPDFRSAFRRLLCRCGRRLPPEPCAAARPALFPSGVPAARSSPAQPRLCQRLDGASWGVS

[N-]=[N+]=CC(=O)OC[C@H](N)C(=O)O [AZASERINE]
Not Active: IC50 [1] | IC50 [2] | IC50 [3] | Ki [3] | IC50 (D(4) dopamine receptor) | IC50 [4] | Ki [4] | IC50 (D(1A) dopamine receptor) | IC50 [5] | Ki [5]

CO[C@H]1[C@@H](O)[C@H](N)[C@@H](O[C@H]2O[C@H]([C@H](C)N)CC[C@H]2N)[C@H](O)[C@@H]1N(C)C(=O)CN [ASTROMICIN]
Not Active: IC50 [1] | IC50 [2] | IC50 [3] | Ki [3] | IC50 (D(4) dopamine receptor) | IC50 [4] | Ki [4] | IC50 (D(1A) dopamine receptor) | IC50 [5] | Ki [5]

COc1ccc2cc(CCC(C)=O)ccc2c1 [NABUMETONE]
Not Active: IC50 [1] | IC50 [2] | IC50 [3] | Ki [3] | IC50 (D(4) dopamine receptor) | IC50 [4] | Ki [4] | IC50 (D(1A) dopamine receptor) | IC50 [5] | Ki [5]

N=C(N)N/N=C/c1c(Cl)cccc1Cl [GUANABENZ]
Not Active: IC50 [1] | IC50 [2] | IC50 [3] | Ki [3] | IC50 (D(4) dopamine receptor) | IC50 [4] | Ki [4] | IC50 (D(1A) dopamine receptor) | IC50 [5] | Ki [5]

NC(=O)N1c2ccccc2C=Cc2ccccc21 [CARBAMAZEPINE]
Not Active: IC50 [1] | IC50 [2] | IC50 [3] | Ki [3] | IC50 (D(4) dopamine receptor) | IC50 [4] | Ki [4] | IC50 (D(1A) dopamine receptor) | IC50 [5] | Ki [5]

Cc1c(N(C)CS(=O)(=O)[O-])c(=O)n(-c2ccccc2)n1C.[Na+] [DIPYRONE SODIUM]
Not Active: IC50 [1] | IC50 [2] | IC50 [3] | Ki [3] | IC50 (D(4) dopamine receptor) | IC50 [4] | Ki [4] | IC50 (D(1A) dopamine receptor) | IC50 [5] | Ki [5]

OCCN1CCN(CCCN2c3ccccc3Sc3ccc(Cl)cc32)CC1 [PERPHENAZINE]
Not Active: IC50 [1] | IC50 [2] | IC50 [3] | Ki [3] | IC50 (D(4) dopamine receptor) | IC50 [4] | Ki [4] | IC50 (D(1A) dopamine receptor) | IC50 [5] | Ki [5]

CC[C@]1(O)CC[C@H]2[C@@H]3CCC4=CCCC[C@@H]4[C@H]3CC[C@@]21C
Not Active: IC50 [1] | IC50 [2] | IC50 [3] | Ki [3] | IC50 (D(4) dopamine receptor) | IC50 [4] | Ki [4] | IC50 (D(1A) dopamine receptor) | IC50 [5] | Ki [5]

CCOC(=O)n1ccn(C)c1=S [CARBIMAZOLE]
Not Active: IC50 [1] | IC50 [2] | IC50 [3] | Ki [3] | IC50 (D(4) dopamine receptor) | IC50 [4] | Ki [4] | IC50 (D(1A) dopamine receptor) | IC50 [5] | Ki [5]

COc1ccc(Cc2nccc3cc(OC)c(OC)cc23)cc1OC [PAPAVERINE]
Not Active: IC50 [1] | IC50 [2] | IC50 [3] | Ki [3] | IC50 (D(4) dopamine receptor) | IC50 [4] | Ki [4] | IC50 (D(1A) dopamine receptor) | IC50 [5] | Ki [5]

C#C[C@]1(O)CC[C@H]2[C@@H]3CCc4cc(O)ccc4[C@H]3CC[C@@]21C [ETHINYL ESTRADIOL]
Not Active: IC50 [1] | IC50 [2] | IC50 [3] | Ki [3] | IC50 (D(4) dopamine receptor) | IC50 [4] | Ki [4] | IC50 (D(1A) dopamine receptor) | IC50 [5] | Ki [5]

Reference: ChEMBL document CHEMBL1909046, “DrugMatrix in vitro pharmacology data”
